In patent US11827628B2, “Compositions and methods for inhibition of the JAK pathway” (Rigel Pharmaceuticals, Inc., priority 2005, dated 2023) one finds IC50 data, which are given here for 23 compounds.

This assay relates to up-regulation of ICAM-1 (CD54) by IFNγ in A549 lung epithelial cells. The assay can be described thus: A549 Epithelial Line Stimulated with IFNγ (ICAM-1 surface expression, FACS). It is filed as cell-based, human. As to conditions: A549 epithelial line stimulated with IFNγ; ICAM-1 expression by FACS; read-out: IC50, Example 43. The gist of the method: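 A549 cells pre-incubated 1 h with compound (30 μM to 14 nM, 5% FBS, 0.3% DMSO), then stimulated with IFNγ (75 ng/mL) for 24 h. Surface ICAM-1 stained with APC anti-CD54 and read by flow cytometry; geometric mean of live-gated events plotted against concentration for EC50.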
A general note: Flow cytometry measures light scatter and fluorescence of single cells or particles in a stream.
Consider “5-Fluoro-N4-[4-(3-methyl-1,2,4-oxadiazol-3-yl)methyleneoxyphenyl]-N2-[(3-N-propanamido)sulfonylphenyl)]-2,4-pyrimidinediamine [Compound I-262]”, for which the IC50 (commonly the concentration that inhibits the measured activity by half) came out at 3.68 µM. As to `Cc1ccc(Nc2ncc(F)c(Nc3ccc(OC4CCCN(C)C4)c(Cl)c3)n2)cc1S(N)(=O)=O` (racemic) [II-3, Racemic N2-(3-aminosulfonyl-4-methylphenyl)-N4-{3-chloro-4-[(1-methylpiperidin-3-yl)oxy]phenyl}-5-fluoro-2,4-pyrimidinediamine], the IC50 worked out at 11.9 µM.

As to `N#CCOc1ccc(Nc2nc(Nc3cccc(S(N)(=O)=O)c3)ncc2F)cc1` [Compound I-17, N2-(3-Aminosulfonyl)phenyl-N4-(4-cyanomethoxy)phenyl-5-fluoro-2,4-pyrimidinediamine], the IC50 amounted to 2.35 µM. The figure for `CN1CCN(S(=O)(=O)c2cccc(Nc3ncc(F)c(Nc4ccc(OCC#N)cc4)n3)c2)CC1` [Compound I-19, N4-(4-Cyanomethoxy)phenyl-5-fluoro-N2-[3-(4-methylpiperazin-1-yl)sulfonyl]phenyl-2,4-pyrimidinediamine] is 24.9 µM; for `Cc1ccc(Nc2ncc(F)c(Nc3ccc(OCC#N)cc3)n2)cc1S(N)(=O)=O` [Compound I-20, N2-(3-Aminosulfonyl-4-methyl)phenyl-N4-(4-cyanomethoxy)phenyl-5-fluoro-2,4-pyrimidinediamine] it is 6.54 µM; for `N#CCOc1ccc(Nc2nc(Nc3ccc(Cl)c(S(N)(=O)=O)c3)ncc2F)cc1` [Compound I-21, N2-(3-Aminosulfonyl-4-chlorophenyl)-N4-(4-cyanomethoxy)phenyl-5-fluoro-2,4-pyrimidinediamine] it is 22.7 µM.

Regarding `Cc1cc(Nc2nc(Nc3ccc(S(N)(=O)=O)cc3)ncc2F)ccc1OCC#N` [Compound I-22, N2-(4-Aminosulfonyl)phenyl-N4-(4-cyanomethoxy-3-methyl)phenyl-5-fluoro-2,4-pyrimidinediamine], the IC50 came out at 14.4 µM. The figure for `Cc1cc(Nc2nc(Nc3ccc(S(N)(=O)=O)cc3)ncc2F)cc(C)c1OCC#N` [Compound I-25, N2-(4-Aminosulfonyl)phenyl-N4-(4-cyanomethoxy-3,5-dimethyl)phenyl-5-fluoro-2,4-pyrimidinediamine] is 25.3 µM; for `Cc1cc(Nc2nc(Nc3cccc(S(N)(=O)=O)c3)ncc2F)cc(C)c1OCC#N` [Compound I-26, N2-(3-Aminosulfonyl)phenyl-N4-(4-cyanomethoxy-3,5-dimethyl)phenyl-5-fluoro-2,4-pyrimidinediamine] it is 4.23 µM; for `Cc1ccc(Nc2ncc(F)c(Nc3cc(C)c(OCC#N)c(C)c3)n2)cc1S(N)(=O)=O` [Compound I-27, N2-(3-Aminosulfonyl-4-methyl)phenyl-N4-(4-cyanomethoxy-3,5-dimethyl)phenyl-5-fluoro-2,4-pyrimidinediamine] it is 3.48 µM. The figure for `COc1cc(Nc2ncc(F)c(Nc3cc(C)c(OCC#N)c(C)c3)n2)ccc1S(N)(=O)=O` [Compound I-32, N2-(4-Aminosulfonyl-3-methoxy)phenyl-N4-(4-cyanomethoxy-3,5-dimethyl)phenyl-5-fluoro-2,4-pyrimidinediamine] is 5.5 µM; for `Cc1cc(COc2ccc(Nc3nc(Nc4cc(C)c(F)c(S(N)(=O)=O)c4)ncc3F)cc2)no1` [Compound I-217, N2-(3-Aminosulfonyl-4-fluoro-5-methylphenyl)-5-fluoro-N4-[4-(5-methylisoxazol-3-yl)methyleneoxyphenyl]-2,4-pyrimidinediamine] it is 36.6 µM; for `Cc1cc(COc2ccc(Nc3nc(Nc4cc(C)c(Cl)c(S(N)(=O)=O)c4)ncc3F)cc2)no1` [Compound I-218, N2-(3-Aminosulfonyl-4-chloro-5-methylphenyl)-5-fluoro-N4-[4-(5-methylisoxazol-3-yl)methyleneoxyphenyl]-2,4-pyrimidinediamine] it is 3.27 µM.

As to `Cc1cc(COc2ccc(Nc3nc(Nc4ccc(C)c(S(N)(=O)=O)c4)ncc3F)cc2)no1` [Compound I-219, N2-(3-Aminosulfonyl-4-methylphenyl)-5-fluoro-N4-[4-(5-methylisoxazol-3-yl)methyleneoxyphenyl]-2,4-pyrimidinediamine], the IC50 is 7.16 µM.

Turning to `Cc1cc(COc2ccc(Nc3nc(Nc4cc(Cl)c(C)c(S(N)(=O)=O)c4)ncc3F)cc2F)no1` [Compound I-223, N2-(3-Aminosulfonyl-5-chloro-4-methylphenyl)-5-fluoro-N4-[3-fluoro-4-(5-methylisoxazol-3-yl)methyleneoxyphenyl]-2,4-pyrimidinediamine], the IC50 was 9.09 µM. Consider `Cc1cc(COc2ccc(Nc3nc(Nc4cc(C)c(F)c(S(N)(=O)=O)c4)ncc3F)cc2F)no1` [Compound I-224, N2-(3-Aminosulfonyl-4-fluoro-5-methylphenyl)-5-fluoro-N4-[3-fluoro-4-(5-methylisoxazol-3-yl)methyleneoxyphenyl]-2,4-pyrimidinediamine], for which the half-inhibitory concentration (IC50) is 11.3 µM.

On to `Cc1cc(COc2ccc(Nc3nc(Nc4ccc(C)c(S(N)(=O)=O)c4)ncc3F)cc2C)no1` [Compound I-234, N2-(3-Aminosulfonyl-4-methylphenyl)-5-fluoro-N4-[3-methyl-4-(5-methylisoxazol-3-yl)methyleneoxyphenyl]-2,4-pyrimidinediamine], for which the 50% inhibitory concentration (IC50) stood at 8.16 µM. The figure for `CCN(CC)CCNS(=O)(=O)c1cccc(Nc2ncc(F)c(Nc3ccc(OCc4cc(C)on4)c(C)c3)n2)c1` [Compound I-244, N2-[3-(2-N,N-Diethylaminoethyl)aminosulfonylphenyl)-5-fluoro-N4-[3-methyl-4-(5-methylisoxazol-3-yl)methyleneoxyphenyl]-2,4-pyrimidinediamine] is 14.7 µM; for `CCN(CC)CCNS(=O)(=O)c1ccc(Nc2ncc(F)c(Nc3ccc(OCc4cc(C)on4)c(C)c3)n2)cc1` [Compound I-245, N2-[4-(2-N,N-Diethylaminoethyl)aminosulfonylphenyl)-5-fluoro-N4-[3-methyl-4-(5-methylisoxazol-3-yl)methyleneoxyphenyl]-2,4-pyrimidinediamine] it is 16.7 µM. Turning to `CCN(CC)CCNS(=O)(=O)c1ccc(Nc2ncc(F)c(Nc3ccc(OCc4cc(C)on4)cc3)n2)cc1` [Compound I-246, N2-[4-(2-N,N-Diethylaminoethyl)aminosulfonylphenyl)-5-fluoro-N4-[4-(5-methylisoxazol-3-yl)methyleneoxyphenyl]-2,4-pyrimidinediamine], the IC50 was 8.88 µM. The figure for `Cc1noc(COc2cccc(Nc3nc(Nc4cccc(S(N)(=O)=O)c4)ncc3F)c2)n1` [Compound I-252, N2-(3-Aminosulfonylphenyl)-5-fluoro-N4-[3-(3-methyl-1,2,4-oxadiazol-5-yl)methyleneoxyphenyl]-2,4-pyrimidinediamine] is 74.2 µM; for `Cc1noc(COc2cccc(Nc3nc(Nc4ccc(C)c(S(N)(=O)=O)c4)ncc3F)c2)n1` [Compound I-254, N2-(3-Aminosulfonyl-4-methylphenyl)-5-fluoro-N4-[3-(3-methyl-1,2,4-oxadiazol-5-yl)methyleneoxyphenyl]-2,4-pyrimidinediamine] it is 8.96 µM. On to `CNS(=O)(=O)c1cc(Nc2ncc(F)c(Nc3cccc(OCc4nc(C)no4)c3)n2)ccc1C` [Compound I-255, 5-Fluoro-N2-[3-(N-methylaminosulfony)-4-methylphenyl]-N4-[3-(3-methyl-1,2,4-oxadiazol-5-yl)methyleneoxyphenyl]-2,4-pyrimidinediamine], for which the IC50 stood at 39.3 µM.
